Data from ChEMBL document CHEMBL3638637, “Imidazo[1,2-Œ±]pyridine sulfonamides as TRPM8 modulators” (2015).

Molecular target: Transient receptor potential M8 protein (Canis lupus familiaris, UniProt Q1A7N1)
Assay: FLIPR Assay: The functional activity of compounds of the formula (I) was determined by measuring changes in intracellular calcium concentration using a Ca2+-sensitive fluorescent dye. The changes in fluorescent signal were monitored by a fluorescence plate reader, either a FLIPR (Molecular Devices) or FDSS (Hamamatsu). Increases in intracellular Ca2+ concentration were readily detected upon activation with icilin.At 24 hrs prior to assay, HEK293 cells stably expressing canine TRPM8 were seeded in culture medium in black wall, clear-base poly-D-lysine coated 384-well plates (BD Biosciences, NJ, USA) and grown overnight in 5% CO2 at 37° C. On assay day, growth media was removed and cells were loaded with Calcium 3 Dye (Molecular Devices) for 35 min at 37° C., under 5% CO2 and then for 25 min at room temperature and atmosphere.
Format: cell-based

Transient receptor potential M8 protein, sequence (Q1A7N1 whole entry): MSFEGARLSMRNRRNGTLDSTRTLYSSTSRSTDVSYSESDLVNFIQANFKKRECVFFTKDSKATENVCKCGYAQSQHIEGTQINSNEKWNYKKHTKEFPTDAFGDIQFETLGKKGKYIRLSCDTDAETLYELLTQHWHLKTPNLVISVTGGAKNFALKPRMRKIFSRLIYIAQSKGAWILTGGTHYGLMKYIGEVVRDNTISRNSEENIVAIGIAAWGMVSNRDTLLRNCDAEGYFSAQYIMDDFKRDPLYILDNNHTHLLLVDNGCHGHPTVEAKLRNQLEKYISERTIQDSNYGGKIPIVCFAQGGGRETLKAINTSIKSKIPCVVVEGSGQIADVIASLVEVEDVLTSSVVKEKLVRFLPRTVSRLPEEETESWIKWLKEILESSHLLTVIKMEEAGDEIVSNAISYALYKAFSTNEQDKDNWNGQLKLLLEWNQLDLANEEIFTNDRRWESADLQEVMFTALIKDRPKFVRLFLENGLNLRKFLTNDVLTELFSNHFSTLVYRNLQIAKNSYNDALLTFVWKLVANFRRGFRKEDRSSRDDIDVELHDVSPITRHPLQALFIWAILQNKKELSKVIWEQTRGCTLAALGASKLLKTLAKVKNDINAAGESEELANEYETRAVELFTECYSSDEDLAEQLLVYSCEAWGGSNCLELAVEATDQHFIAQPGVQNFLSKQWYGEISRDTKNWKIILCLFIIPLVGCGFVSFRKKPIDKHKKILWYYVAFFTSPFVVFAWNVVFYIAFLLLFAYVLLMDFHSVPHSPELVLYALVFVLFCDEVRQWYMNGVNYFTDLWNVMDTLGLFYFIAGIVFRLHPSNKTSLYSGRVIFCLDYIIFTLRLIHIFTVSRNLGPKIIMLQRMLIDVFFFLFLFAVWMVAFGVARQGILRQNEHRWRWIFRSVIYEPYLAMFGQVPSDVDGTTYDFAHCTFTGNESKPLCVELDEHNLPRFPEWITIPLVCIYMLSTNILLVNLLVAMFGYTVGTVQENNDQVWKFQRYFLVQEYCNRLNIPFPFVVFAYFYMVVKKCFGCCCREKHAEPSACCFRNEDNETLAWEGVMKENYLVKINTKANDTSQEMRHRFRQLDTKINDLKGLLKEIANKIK

Cc1c(N(Cc2ccc(F)c(C(F)(F)F)c2)S(=O)(=O)c2ccc(C(=O)O)cc2)nc2ccc(Cl)cn12 was tested, and the IC50 was 34.9 nM.
